Assay results from patent US9011867B2, “Use of specific peptides in the preparation of a medicament for the treatment of monoclonal gammopathy of undetermined significance (MGUS) or of smoldering multiple myeloma (SMM)” (Ruprecht-Karls-Universitat Heidelberg, priority 2009, dated 2015).

Columns and labels:
[1] = test system: Melan-A analogue specific T-cells; experiment: IFN-γ ELISpot-assay with peptide pulsed T2 cells, Melan-A analogue specific T-cells as effectors; format: cell-based, human; settings: for activation of Melan-A analogue specific T-cells by peptide pulsed T2 cells (IFN-γ ELISpot): T-cells from HLA-A2+ HD, ET ratio 2.5/1, FIG. 1A
[2] = test system: HM1.24aa22-30-specific T-cells; experiment: IFN-γ ELISpot-assay with peptide pulsed T2 cells, HM1.24aa22-30-specific T-cells as effectors; format: cell-based, human; settings: T-cells from HLA-A2+ HD; ET ratio 2.5/1; FIG. 1A

Sequence | activation of Melan-A analogue specific T-cells by peptide pulsed T2 cells (IFN-γ ELISpot) [1] | activation of HM1.24aa22-30-specific T-cells by peptide pulsed T2 cells (IFN-γ ELISpot) [2] | IFN-γ production of Melan-A analogue specific T-cells activated by peptide pulsed T2 cells ([1]; T-cells from MM patient no. 10, FIG. 4B)
VLLGLSALL [HM1.24aa171-179] | activated neither | activated neither | –
LLLGIGILV (peptide (HM 1.24)) [HM1.24aa22-30] | strong activation | – | produced IFN-γ
